Key:
[1] = Stability in tissue culture medium (HPLC analysis); type: physicochemical; settings: 37°C
[2] = biological target: T1, O^6-alkylguanine DNA alkyltransferase (ATase) (Homo sapiens, UniProt P16455); test: O^6-alkylguanine DNA alkyltransferase assay of treated cells; type: cell-based; settings: concentrations of BG used
T1 construct: endogenous in cells; host or cells: human tumour cell lines U373, MCF-7, LOVO, MAWI (extracts of treated cells)
T1 sequence (P16455 1-207): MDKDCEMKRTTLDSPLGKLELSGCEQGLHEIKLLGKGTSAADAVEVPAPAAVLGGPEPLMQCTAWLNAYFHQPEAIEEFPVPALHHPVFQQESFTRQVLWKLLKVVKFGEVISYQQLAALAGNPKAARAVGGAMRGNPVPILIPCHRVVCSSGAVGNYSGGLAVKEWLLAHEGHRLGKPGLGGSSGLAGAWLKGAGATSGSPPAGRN
Method: This assay was carried out as described by Lee et al., Cancer Res., 51:619 (1991). Thus, varying amounts of cell extracts are incubated with DNA which contains O^6-methylguanine labelled with [^3H] in the methyl group, at preferably 37°C for 2 hours in a total volume of 300 µl of 1 mg/ml of bovine serum albumin in buffer 1. After incubation, bovine serum albumin (100µl of a 10 mg/ml solution in buffer 1) and perchloric acid (100µl of a 4 M solution) are added in rapid succession. A further 2 ml of 1M perchloric is added and the mixture heated at 75°C for 40 minutes to degrade the DNA to acid soluble material. The protein, which contains the methylated ATase, is then collected by centrifugation, washed with 4ml of 1M perchloric acid before being resuspended in 300 µl of 0.01M sodium hydroxide and dissolved in 3ml of aqueous scintillation fluid (Ecoscint A: National Diagnostics), and counted. The protein content of the cells was determined with a BioRad protein assay kit using bovine serum albumin as a standard. ATase activity is expressed as fmol methyl transferred to protein per mg of total protein in the extract.

human tumour cell lines = test: Single dose cytotoxicity, summary over the tumour cell lines; type: cell-based
Method: (§1) Cell lines were routinely grown as monolayers in DMEM supplemented with 10% foetal calf serum, 25mM HEPES, glutamine and penicillin/streptomycin. Cytotoxicity studies were carried out in HEPES-free medium in a 5% CO2 atmosphere. 750-1000 cells/well were plated in 96 well plates and, after overnight incubation, were treated for 2 hours with or without 33 µM BG. Temozolomide or CCNU was then added for 1 hour in the same medium, the final DMSO concentration not exceeding 1%. […] For the repeat temozolomide dozing schedule, cells were given consecutive 24 hour treatments, with fresh medium each day. Assays were carried out at least in duplicate.

U373 = test: Single dose cytotoxicity (sulphorhodamine protein assay); type: cell-based, human; settings: for IC50: Homo sapiens, U373 MG, U373 (astrocytoma), 1 hour drug
Method: as §1

MCF-7 = test: as above; type: cell-based, human; settings: for IC50: Homo sapiens, MCF7, MCF-7 (breast), 1 hour drug
Method: as §1

U87MG = test: as above; type: cell-based, human; settings: for IC50: Homo sapiens, U-87 MG, U87MG (astrocytoma), 1 hour drug
Method: as §1

ZR-75-1 = test: as above; type: cell-based, human; settings: for IC50: Homo sapiens, ZR-75-1 (breast), 1 hour drug
Method: as §1

MAWI = test: as above; type: cell-based, human; settings: for IC50: Homo sapiens, MAWI (colo-rectal), 1 hour drug
Method: as §1

LS174T = test: as above; type: cell-based, human; settings: for IC50: Homo sapiens, LS174T (colo-rectal), 1 hour drug
Method: as §1

LOVO = test: as above; type: cell-based, human; settings: for IC50: Homo sapiens, LOVO (colo-rectal), 1 hour drug
Method: as §1

Question: Which results are given for Nc1nc(OCc2ccccc2)c2[nH]cnc2n1 [BG, O^6-benzylguanine]?
Answer: stable in tissue culture medium [1]: at least 24 hours; ATase content after BG ([2]; MAWI cells): undetectable level; ATase content after BG ([2]; human ATase cDNA transfected XP fibroblasts): undetectable level

Question: With O=NN(CCCl)C(=O)NC1CCCCC1 [CCNU, lomustine] as the compound, how does the “increase in toxicity (sensitivity) after pretreatment with a single non-toxic dose of BG” value (human tumour cell lines; single dose, over the tumour cell lines) read?
Answer: ≤ 6 fold

Question: And the “toxicity on a molar basis relative to temozolomide” value (human tumour cell lines; slopes of IC50 versus ATase content, Figure 1)?
Answer: approximately five

Question: What about the IC50 (U373; 2 hours 33 µM BG before) of the same compound?
Answer: 12 µM

Question: What about the IC50 (U373; without BG) of the same compound?
Answer: 15 µM

Question: And the “Ratio IC50 [-BG]/IC50 [+BG]” value (U373; U373)?
Answer: 1.2

Question: And the IC50 (MCF-7; 2 hours 33 µM BG before)?
Answer: 31 µM

Question: What about the IC50 (MCF-7; without BG) of the same compound?
Answer: 70 µM

Question: And the “Ratio IC50 [-BG]/IC50 [+BG]” value (MCF-7; MCF-7)?
Answer: 2.2

Question: And the IC50 (U87MG; 2 hours 33 µM BG before)?
Answer: 8.8 µM

Question: And the IC50 (U87MG; without BG)?
Answer: 28 µM

Question: What about the “Ratio IC50 [-BG]/IC50 [+BG]” value (U87MG; U87MG) of the same compound?
Answer: 3.2

Question: And the IC50 (ZR-75-1; 2 hours 33 µM BG before)?
Answer: 25 µM

Question: What about the IC50 (ZR-75-1; without BG) of the same compound?
Answer: 12 µM

Question: What about the “Ratio IC50 [-BG]/IC50 [+BG]” value (ZR-75-1; ZR-75-1) of the same compound?
Answer: 0.5

Question: And the IC50 (MAWI; 2 hours 33 µM BG before)?
Answer: 30 µM

Question: And the IC50 (MAWI; without BG)?
Answer: 133 µM

Question: What about the “Ratio IC50 [-BG]/IC50 [+BG]” value (MAWI; MAWI) of the same compound?
Answer: 4.4

Question: What about the IC50 (LS174T; 2 hours 33 µM BG before) of the same compound?
Answer: 13 µM

Question: And the IC50 (LS174T; without BG)?
Answer: 73 µM

Question: What about the “Ratio IC50 [-BG]/IC50 [+BG]” value (LS174T; LS174T) of the same compound?
Answer: 5.7

Question: What about the IC50 (LOVO; 2 hours 33 µM BG before) of the same compound?
Answer: 32 µM

Question: And the IC50 (LOVO; without BG)?
Answer: 92 µM

Question: What about the “Ratio IC50 [-BG]/IC50 [+BG]” value (LOVO; LOVO) of the same compound?
Answer: 2.9
